From EP4752152A1, “STEROID COMPOUND, AND PREPARATION METHOD THEREFOR AND USE THEREOF” (Cholesgen (Shanghai) Co.Ltd., priority 2023, dated 2025)

These compounds were tested on SREBP pathway (assay: SREBP luciferase reporter gene system (SRE-luciferase assay)). Conditions: Homo sapiens, Huh-7, 16 h, Huh-7/SRE-luc cells, sterol-deficient medium, 0.01-10 µM.
Type: cell-based, human
Method in brief: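 Huh-7 cells stably carrying LDLR promoter-luciferase plus GFP were treated 16 h in sterol-deficient medium (5% lipoprotein-deficient serum, 2 µM lovastatin, 10 µM mevalonic acid) at 0.01–10 µM. Luciferase/GFP ratio measured as pathway activity; inhibition versus DMSO fitted to a four-parameter model for IC50.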

SMILES	IC50
C[C@H](CCCC(O)c1cccc2nnn(C)c12)[C@H]1CC[C@H]2[C@H]3[C@H](CC[C@]12C)[C@@]1(C)CC[C@H](O)[C@H](O)[C@@H]1CC3(F)F (single isomer, unassigned) [Compound 277, (1R,3aS,3bS,5aR,6R,7S,9aR,9bS,11aR)-4,4-difluoro-1-[(2R,6S)-6-hydroxy-6-(3-methylbenzo[d][1,2,3]triazol-4-yl)hexan-2-yl]-9a,11a-dimethylhexadecahydro-1H-cyclopenta[1,2-a]phenanthrene-6,7-diol or (1R,3aS,3bS,5aR,6R,7S,9aR,9bS,11aR)-4,4-difluoro-1-[(2R,6R)-6-hydroxy-6-(3-methylbenzo[d][1,2,3]triazol-4-yl)hexan-2-yl]-9a,11a-dimethylhexadecahydro-1H-cyclopenta[1,2-a]phenanthrene-6,7-diol]	0.369 µM
C[C@H](CCC[C@H](O)c1ncc(F)cc1F)[C@H]1CC[C@H]2[C@H]3[C@H](CC[C@]12C)[C@@]1(C)CC[C@H](O)[C@H](O)[C@@H]1CC3(F)F (single isomer, unassigned) [Compound 279]	0.202 µM
C[C@H](CCC[C@@H](O)c1ncc(F)cc1F)[C@H]1CC[C@H]2[C@H]3[C@H](CC[C@]12C)[C@@]1(C)CC[C@H](O)[C@H](O)[C@@H]1CC3(F)F (single isomer, unassigned) [Compound 280]	0.238 µM
C[C@H](CCCC(O)c1cnc2c(c1)OC(F)(F)O2)[C@H]1CC[C@H]2[C@H]3[C@H](CC[C@]12C)[C@@]1(C)CC[C@H](O)[C@H](O)[C@@H]1CC3(F)F (single isomer, unassigned) [Compound 285]	0.253 µM
C[C@H](CCCC(O)c1cccc2c1nnn2C)[C@H]1CC[C@H]2[C@H]3[C@H](CC[C@]12C)[C@@]1(C)CC[C@H](O)[C@H](O)[C@@H]1CC3(F)F (single isomer, unassigned) [Compound 290, (1R,3aS,3bS,5aR,6R,7S,9aR,9bS,11aR)-4,4-difluoro-1-[(2R,6S)-6-hydroxy-6-(1-methylbenzo[d][1,2,3]triazol-4-yl)hexan-2-yl]-9a,11a-dimethylhexadecahydro-1H-cyclopenta[1,2-a]phenanthrene-6,7-diol or (1R,3aS,3bS,5aR,6R,7S,9aR,9bS,11aR)-4,4-difluoro-1-[(2R,6R)-6-hydroxy-6-(1-methylbenzo[d][1,2,3]triazol-4-yl)hexan-2-yl]-9a,11a-dimethylhexadecahydro-1H-cyclopenta[1,2-a]phenanthrene-6,7-diol]	0.137 µM
C[C@H](CCCC(O)c1cccc2nn[nH]c12)[C@H]1CC[C@H]2[C@H]3[C@H](CC[C@]12C)[C@@]1(C)CC[C@H](O)[C@H](O)[C@@H]1CC3(F)F (single isomer, unassigned) [Compound 294, (1R,3aS,3bS,5aR,6R,7S,9aR,9bS,11aR)-4,4-difluoro-1-[(2R,6S)-6-hydroxy-6-(3H-benzo[d][1,2,3]triazol-4-yl)hexan-2-yl]-9a,11a-dimethylhexadecahydro-1H-cyclopenta[1,2-a]phenanthrene-6,7-diol or (1R,3aS,3bS,5aR,6R,7S,9aR,9bS,11aR)-4,4-difluoro-1-[(2R,6R)-6-hydroxy-6-(3H-benzo[d][1,2,3]triazol-4-yl)hexan-2-yl]-9a,11a-dimethylhexadecahydro-1H-cyclopenta[1,2-a]phenanthrene-6,7-diol]	0.424 µM

Same assay, conditions: Huh-7/SRE-luc cells, sterol-deficient medium, 16 hours, 0.01-10 µM

SMILES	IC50
C[C@H](CCCC(O)c1cccc2nnn(C)c12)[C@H]1CC[C@H]2[C@H]3[C@H](CC[C@]12C)[C@@]1(C)CC[C@H](O)[C@H](O)[C@@H]1CC3(F)F (single isomer, unassigned) [Compound 278, (1R,3aS,3bS,5aR,6R,7S,9aR,9bS,11aR)-4,4-difluoro-1-[(2R,6R)-6-hydroxy-6-(3-methylbenzo[d][1,2,3]triazol-4-yl)hexan-2-yl]-9a,11a-dimethylhexadecahydro-1H-cyclopenta[1,2-a]phenanthrene-6,7-diol or (1R,3aS,3bS,5aR,6R,7S,9aR,9bS,11aR)-4,4-Difluoro-1-[(2R,6S)-6-hydroxy-6-(3-methylbenzo[d][1,2,3]triazol-4-yl)hexan-2-yl]-9a,11a-dimethylhexadecahydro-1H-cyclopenta[1,2-a]phenanthrene-6,7-diol]	0.189 µM
C[C@H](CCCC(O)c1cnc2c(c1)OC(F)(F)O2)[C@H]1CC[C@H]2[C@H]3[C@H](CC[C@]12C)[C@@]1(C)CC[C@H](O)[C@H](O)[C@@H]1CC3(F)F (single isomer, unassigned) [Compound 286]	0.26 µM
C[C@H](CCCC(O)c1cncc2c1cnn2C)[C@H]1CC[C@H]2[C@H]3[C@H](CC[C@]12C)[C@@]1(C)CC[C@H](O)[C@H](O)[C@@H]1CC3(F)F (single isomer, unassigned) [Compound 287, (1R,3aS,3bS,5aR,6R,7S,9aR,9bS,11aR)-4,4-difluoro-1-[(2R,6S)-6-hydroxy-6-(1-methylpyrazolo[3,4-c]pyridin-4-yl)hexan-2-yl]-9a,11a-dimethylhexadecahydro-1H-cyclopenta[1,2-a]phenanthrene-6,7-diol or (1R,3aS,3bS,5aR,6R,7S,9aR,9bS,11aR)-4,4-difluoro-1-[(2R,6R)-6-hydroxy-6-(1-methylpyrazolo[3,4-c]pyridin-4-yl)hexan-2-yl]-9a,11a-dimethylhexadecahydro-1H-cyclopenta[1,2-a]phenanthrene-6,7-diol]	0.131 µM
C[C@H](CCCC(O)c1cncc2c1cnn2C)[C@H]1CC[C@H]2[C@H]3[C@H](CC[C@]12C)[C@@]1(C)CC[C@H](O)[C@H](O)[C@@H]1CC3(F)F (single isomer, unassigned) [Compound 288, (1R,3aS,3bS,5aR,6R,7S,9aR,9bS,11aR)-4,4-difluoro-1-[(2R,6R)-6-hydroxy-6-(1-methylpyrazolo[3,4-c]pyridin-4-yl)hexan-2-yl]-9a,11a-dimethylhexadecahydro-1H-cyclopenta[1,2-a]phenanthrene-6,7-diol or (1R,3aS,3bS,5aR,6R,7S,9aR,9bS,11aR)-4,4-difluoro-1-[(2R,6S)-6-hydroxy-6-(1-methylpyrazolo[3,4-c]pyridin-4-yl)hexan-2-yl]-9a,11a-dimethylhexadecahydro-1H-cyclopenta[1,2-a]phenanthrene-6,7-diol]	0.388 µM
C[C@H](CCCC(O)c1cccc2c1nnn2C)[C@H]1CC[C@H]2[C@H]3[C@H](CC[C@]12C)[C@@]1(C)CC[C@H](O)[C@H](O)[C@@H]1CC3(F)F (single isomer, unassigned) [Compound 291, (1R,3aS,3bS,5aR,6R,7S,9aR,9bS,11aR)-4,4-difluoro-1-[(2R,6R)-6-hydroxy-6-(1-methylbenzo[d][1,2,3]triazol-4-yl)hexan-2-yl]-9a,11a-dimethylhexadecahydro-1H-cyclopenta[1,2-a]phenanthrene-6,7-diol or (1R,3aS,3bS,5aR,6R,7S,9aR,9bS,11aR)-4,4-difluoro-1-[(2R,6S)-6-hydroxy-6-(1-methylbenzo[d][1,2,3]triazol-4-yl)hexan-2-yl]-9a,11a-dimethylhexadecahydro-1H-cyclopenta[1,2-a]phenanthrene-6,7-diol]	0.141 µM
